In patent US20250215039A1, “NUCLEOSIDES FOR TREATING CANCER” (PRIMEFOUR THERAPEUTICS, INC., priority 2022, published 2025):
Read-outs that look alike come from different tables or passages of the source.

Experiments:
[1] = target: human cytidine deaminase (CDA) (Homo sapiens, UniProt P32320); assay: Metabolism by human cytidine deaminase (CDA), substrate absorbance at 290 nm; conditions: rate of substrate conversion at 200 μM; could not be fitted
cancer cell lines = assay: Cancer cell proliferation activity (CellTiterGlo, 72 h); type: cell-based; conditions: 72 h, 72 h, read-out: IC50 cell proliferation
How it was run: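 Readout is CellTiterGlo luminescence after 72 h compound exposure (0.1% DMSO final), started one day post-seeding, at 37 °C.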

Chain of human cytidine deaminase (CDA) (P32320 whole entry): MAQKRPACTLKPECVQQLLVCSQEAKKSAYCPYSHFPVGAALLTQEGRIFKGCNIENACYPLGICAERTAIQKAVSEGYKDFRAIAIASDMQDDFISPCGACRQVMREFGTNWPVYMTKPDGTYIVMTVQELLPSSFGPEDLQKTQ

With `Nc1ccn([C@H]2C[C@H](O)[C@](CO)(CF)O2)c(=O)n1` [Cpd. No. 198, 4-amino-1-((2R,4S,5R)-5-(fluoromethyl)-4-hydroxy-5-(hydroxymethyl)tetrahydrofuran-2-yl)pyrimidin-2(1H)-one] the “substrate conversion by CDA (Inactive)” value [1] was “Inactive”, the IC50 (cancer cell lines; 5637 (bladder)) was 0.45 µM and the IC50 (cancer cell lines; CLS439 (bladder)) was 2.27 µM. For the same molecule, the IC50 (cancer cell lines; HS729 (muscle)) was 0.58 µM, the IC50 (cancer cell lines; J82 (bladder)) was 0.76 µM and the IC50 (cancer cell lines; JAR (placenta)) was > 50 µM. It also gave an IC50 (cancer cell lines; MT3 (breast)) of 0.08 µM, an IC50 (cancer cell lines; PANCI (pancreas)) of 0.62 µM and an IC50 (cancer cell lines; PC3 (prostate)) of 0.18 µM. The IC50 (cancer cell lines; RD (muscle)) was 1.03 µM, the IC50 (cancer cell lines; T24 (bladder)) was 0.29 µM and the IC50 (cancer cell lines; Homo sapiens, A204, 72 h, A204 (muscle)) was 0.02 µM. The IC50 (cancer cell lines; Homo sapiens, A549, 72 h, A549 (lung)) was 0.44 µM, the IC50 (cancer cell lines; Homo sapiens, A2780, 72 h, A2780 (ovary)) was 0.72 µM and the IC50 (cancer cell lines; Homo sapiens, A-375, 72 h, A375 (skin)) was 0.71 µM. For the same molecule, the IC50 (cancer cell lines; Homo sapiens, A-431, 72 h, A431 (skin)) was 0.47 µM, the IC50 (cancer cell lines; Homo sapiens, ACHN, ACHN (kidney)) was 0.39 µM and the IC50 (cancer cell lines; Homo sapiens, ASPC1, 72 h, ASPC1 (pancreas)) was 0.58 µM. It also gave an IC50 (cancer cell lines; Homo sapiens, BT-20, 72 h, BT20 (breast)) of 0.58 µM, an IC50 (cancer cell lines; Homo sapiens, BXPC-3, 72 h, BXPC3 (pancreas)) of 0.54 µM and an IC50 (cancer cell lines; Homo sapiens, C-33-A, C33A (endometrial)) of 0.24 µM. The IC50 (cancer cell lines; Homo sapiens, CAKI-1, 72 h, CAKI1 (kidney)) was 0.11 µM, the IC50 (cancer cell lines; Homo sapiens, COLO 205, 72 h, COLO205 (colon)) was 0.21 µM and the IC50 (cancer cell lines; Homo sapiens, Caco-2, 72 h, CACO2 (colon)) was > 50 µM. It also gave an IC50 (cancer cell lines; Homo sapiens, Calu-6, 72 h, CALU6 (lung)) of 0.72 µM, an IC50 (cancer cell lines; Homo sapiens, DU-145, 72 h, DU145 (prostate)) of 0.31 µM and an IC50 (cancer cell lines; Homo sapiens, EFO-21, 72 h, EFO21 (ovary)) of 0.79 µM. The IC50 (cancer cell lines; Homo sapiens, Granta-519, 72 h, GRANTA-519 (hematological)) was 0.07 µM, the IC50 (cancer cell lines; Homo sapiens, HCT-15, 72 h, HCT15 (colon)) was 0.46 µM and the IC50 (cancer cell lines; Homo sapiens, HCT-116, 72 h, HCT116 (colon)) was 0.47 µM. For the same molecule, the IC50 (cancer cell lines; Homo sapiens, HEK293, 72 h, HEK293 (kidney)) was > 50 µM, the IC50 (cancer cell lines; Homo sapiens, HT-1080, 72 h, HT1080 (connective tissue)) was 0.38 µM and the IC50 (cancer cell lines; Homo sapiens, HeLa, HELA (endometrial)) was 1 µM. For the same molecule, the IC50 (cancer cell lines; Homo sapiens, HepG2, 72 h, HEPG2 (liver)) was 1 µM, the IC50 (cancer cell lines; Homo sapiens, Hs-578T, HS578T (breast)) was 0.97 µM and the IC50 (cancer cell lines; Homo sapiens, IGROV-1, 72 h, IGROV1 (ovary)) was 0.51 µM. For the same molecule, the IC50 (cancer cell lines; Homo sapiens, JIMT-1, 72 h, JIMT1 (breast)) was 0.19 µM, the IC50 (cancer cell lines; Homo sapiens, Kasumi 1, 72 h, KASUMI-1 (hematological)) was 0.27 µM and the IC50 (cancer cell lines; Homo sapiens, L-363, 72 h, L-363 (hematological)) was > 50 µM. For the same molecule, the IC50 (cancer cell lines; Homo sapiens, LoVo, LOVO (colon)) was 0.29 µM, the IC50 (cancer cell lines; Homo sapiens, MDA-MB-231, 72 h, MDAMB231 (breast)) was 0.1 µM and the IC50 (cancer cell lines; Homo sapiens, MDA-MB-435, 72 h, MDAMB435 (skin)) was 1.3 µM. It also gave an IC50 (cancer cell lines; Homo sapiens, MDA-MB-436, 72 h, MDAMB436 (breast)) of 0.95 µM, an IC50 (cancer cell lines; Homo sapiens, MG-63, 72 h, MG63 (bone)) of 0.48 µM and an IC50 (cancer cell lines; Homo sapiens, MINO, MINO (hematological)) of 0.06 µM. It also gave an IC50 (cancer cell lines; Homo sapiens, MV4-11, 72 h, MV4-11 (hematological)) of 0.84 µM, an IC50 (cancer cell lines; Homo sapiens, NCI-H23, 72 h, NCI-H23 (lung)) of 0.72 µM and an IC50 (cancer cell lines; Homo sapiens, NCI-H292, 72 h, NCIH292 (lung)) of 0.92 µM. For the same molecule, the IC50 (cancer cell lines; Homo sapiens, NCI-H460, 72 h, NCIH460 (lung)) was 0.77 µM, the IC50 (cancer cell lines; Homo sapiens, OVCAR-3, 72 h, OVCAR3 (ovary)) was 0.64 µM and the IC50 (cancer cell lines; Homo sapiens, PLC-PRF-5, 72 h, PLCPRF5 (liver)) was > 50 µM. For the same molecule, the IC50 (cancer cell lines; Homo sapiens, Panc1005, 72 h, PANC1005 (pancreas)) was > 50 µM, the IC50 (cancer cell lines; Homo sapiens, Ramos, RAMOS (hematological)) was 0.24 µM and the IC50 (cancer cell lines; Homo sapiens, SAOS-2, 72 h, SAOS2 (bone)) was 0.11 µM. The IC50 (cancer cell lines; Homo sapiens, SF-268, 72 h, SF268 (brain)) was 0.26 µM, the IC50 (cancer cell lines; Homo sapiens, SK-BR-3, 72 h, SKBR3 (breast)) was 0.26 µM and the IC50 (cancer cell lines; Homo sapiens, SK-HEP1, 72 h, SKHEP1 (liver)) was 0.32 µM. The IC50 (cancer cell lines; Homo sapiens, SK-LMS-1, 72 h, SKLMS1 (uterus)) was 0.86 µM, the IC50 (cancer cell lines; Homo sapiens, SK-N-SH, SKNSH (brain)) was > 50 µM and the IC50 (cancer cell lines; Homo sapiens, SNB-75, 72 h, SNB75 (brain)) was 0.55 µM. The IC50 (cancer cell lines; Homo sapiens, SU-DHL10, 72 h, SU-DHL-10 (hematological)) was 0.56 µM, the IC50 (cancer cell lines; Homo sapiens, SU-DHL-6, 72 h, SU-DHL-6 (hematological)) was 0.31 µM and the IC50 (cancer cell lines; Homo sapiens, THP-1, 72 h, THP-1 (hematological)) was 0.65 µM. For the same molecule, the IC50 (cancer cell lines; Homo sapiens, U-87 MG, U87MG (brain)) was 0.4 µM, the IC50 (cancer cell lines; Homo sapiens, UO-31, 72 h, UO31 (kidney)) was 0.55 µM and the IC50 (cancer cell lines; Homo sapiens, WSU-NHL, WSU-NHL (hematological)) was 0.15 µM. It also gave an IC50 (cancer cell lines; NCI-H358M, NCIH358M (lung)) of 0.12 µM, an IC50 (cancer cell lines; PBMC, PBMC (hematological)) of 0.71 µM and an IC50 (cancer cell lines; RD-ES, RDES (bone)) of 1.9 µM.
